Source: the OligoGym collection
“And” between values parts separate entries of the source, which are not always exact repeats. Equal values may be shown once. After the bases stand the sugars from the 5' end (letter, count) and the backbone: PS all phosphorothioate, else s phosphorothioate and o phosphodiester by linkage. Methylation of C is not given here. k = constrained ethyl (cEt); d = 2'-deoxy (DNA)

What follows are sequences tested against MALAT1. Conditions: ASO, A431, 0.005 µM.

Q: ACCAGGAGTGCCAACC (sugars k3 d10 k3, PS) was tested. Which target mRNA inhibition did it give?
A: 8%

Q: Which target mRNA inhibition does the source give for ACCAGTCCTTTTAGTA (sugars k3 d10 k3, PS) here?
A: -2%

Q: Which target mRNA inhibition does the source give for ACCCCAACTAAACATA (sugars k3 d10 k3, PS) here?
A: 26%

Q: How did the target mRNA inhibition turn out when ACCCGGAAATCGGCCT (sugars k3 d10 k3, PS) was run?
A: -6%

Q: With ACCGTAACAGGCCACT (sugars k3 d10 k3, PS) as the sequence, how does the target mRNA inhibition read?
A: 20%

Q: With ACCTACAACACCCGGA (sugars k3 d10 k3, PS) as the sequence, how does the target mRNA inhibition read?
A: 25%

Q: ACCTCTTAAAGCACTT (sugars k3 d10 k3, PS) was tested. Which target mRNA inhibition did it give?
A: 18%

Q: With ACCTTCTGAACCGGAG (sugars k3 d10 k3, PS) as the sequence, how does the target mRNA inhibition read?
A: 22%

Q: With ACCTTGGGCAGCCAGT (sugars k3 d10 k3, PS) as the sequence, how does the target mRNA inhibition read?
A: -4%

Q: ACGAAGAGATACCTGT (sugars k3 d10 k3, PS) was tested. Which target mRNA inhibition did it give?
A: 18%

Q: ACGCCAACACAGTTTG (sugars k3 d10 k3, PS) was tested. Which target mRNA inhibition did it give?
A: 48%

Q: For ACGCTAAGCAATATCT (sugars k3 d10 k3, PS), which target mRNA inhibition is on record?
A: 37%

Q: How did the target mRNA inhibition turn out when ACTAAAGGCTTCAGTC (sugars k3 d10 k3, PS) was run?
A: 26%

Q: ACTACCAGCCATTTCT (sugars k3 d10 k3, PS) was tested. Which target mRNA inhibition did it give?
A: 49%

Q: How did the target mRNA inhibition turn out when ACTACCATATCCAAAC (sugars k3 d10 k3, PS) was run?
A: 27%

Q: Which target mRNA inhibition does the source give for ACTATCACAATTCTTA (sugars k3 d10 k3, PS) here?
A: 13%

Q: Which target mRNA inhibition does the source give for ACTCAAAGTCCAATGC (sugars k3 d10 k3, PS) here?
A: 31%

Q: With ACTCCCCCATTATATT (sugars k3 d10 k3, PS) as the sequence, how does the target mRNA inhibition read?
A: 2%

Q: ACTCGCTCCTTCCTGG (sugars k3 d10 k3, PS) was tested. Which target mRNA inhibition did it give?
A: 48%

Q: With ACTCTGATCTGCGGCC (sugars k3 d10 k3, PS) as the sequence, how does the target mRNA inhibition read?
A: 13%

Q: Which target mRNA inhibition does the source give for ACTGAAGAGCATTGGA (sugars k3 d10 k3, PS) here?
A: 34%

Q: Which target mRNA inhibition does the source give for ACTGAATCCACTTCTG (sugars k3 d10 k3, PS) here?
A: 35%

Q: How did the target mRNA inhibition turn out when ACTGATCTGACTTTGT (sugars k3 d10 k3, PS) was run?
A: 32%

Q: For ACTGCAAGGTCTCATA (sugars k3 d10 k3, PS), which target mRNA inhibition is on record?
A: -1%

Q: Which target mRNA inhibition does the source give for ACTGCATTTACTTGCC (sugars k3 d10 k3, PS) here?
A: 8%

Q: Which target mRNA inhibition does the source give for ACTGCTTACAGATTTG (sugars k3 d10 k3, PS) here?
A: 61% and 64%

Q: Which target mRNA inhibition does the source give for ACTGGGAATACTCTTC (sugars k3 d10 k3, PS) here?
A: 28%

Q: Which target mRNA inhibition does the source give for ACTGGTACACCCAGTG (sugars k3 d10 k3, PS) here?
A: -8%

Q: How did the target mRNA inhibition turn out when ACTTATCCCTAACATG (sugars k3 d10 k3, PS) was run?
A: 13%

Q: Which target mRNA inhibition does the source give for ACTTGAATGCAAACTA (sugars k3 d10 k3, PS) here?
A: 11%

Q: With AGAAATCGGAGCAGCA (sugars k3 d10 k3, PS) as the sequence, how does the target mRNA inhibition read?
A: 9%

Q: AGAAGAATCCCCCCCA (sugars k3 d10 k3, PS) was tested. Which target mRNA inhibition did it give?
A: -13%

Q: Which target mRNA inhibition does the source give for AGAAGTCTCGGGCTGC (sugars k3 d10 k3, PS) here?
A: 8%

Q: AGACAGACCTAAGGGA (sugars k3 d10 k3, PS) was tested. Which target mRNA inhibition did it give?
A: 21%

Q: With AGACAGATTAGTAGTC (sugars k3 d10 k3, PS) as the sequence, how does the target mRNA inhibition read?
A: -8%

Q: For AGAGAAGAATCCCCCC (sugars k3 d10 k3, PS), which target mRNA inhibition is on record?
A: 28%

Q: AGAGTGTTCGCAGACA (sugars k3 d10 k3, PS) was tested. Which target mRNA inhibition did it give?
A: 57%

Q: How did the target mRNA inhibition turn out when AGATACCTGTCTGAGG (sugars k3 d10 k3, PS) was run?
A: 12%

Q: For AGATAGCAGCACAACT (sugars k3 d10 k3, PS), which target mRNA inhibition is on record?
A: -5%

Q: For AGATTCACTGAATCCA (sugars k3 d10 k3, PS), which target mRNA inhibition is on record?
A: 6%

Q: With AGATTTGAGCTGCAAA (sugars k3 d10 k3, PS) as the sequence, how does the target mRNA inhibition read?
A: 11%

Q: AGCACCTGGGTCAGCT (sugars k3 d10 k3, PS) was tested. Which target mRNA inhibition did it give?
A: -5%

Q: How did the target mRNA inhibition turn out when AGCACGGGCTGTCTGC (sugars k3 d10 k3, PS) was run?
A: 7%

Q: Which target mRNA inhibition does the source give for AGCAGCACGGGCTGTC (sugars k3 d10 k3, PS) here?
A: 10%

Q: AGCCTATAAGGACAGC (sugars k3 d10 k3, PS) was tested. Which target mRNA inhibition did it give?
A: 23%

Q: For AGCCTTGCAGGGACGG (sugars k3 d10 k3, PS), which target mRNA inhibition is on record?
A: -21%

Q: With AGCCTTTATCACTCAG (sugars k3 d10 k3, PS) as the sequence, how does the target mRNA inhibition read?
A: 35%

Q: For AGCGAGTTCAAGTGGC (sugars k3 d10 k3, PS), which target mRNA inhibition is on record?
A: 27%

Q: AGCTACCATCAGAAGA (sugars k3 d10 k3, PS) was tested. Which target mRNA inhibition did it give?
A: 34%

Q: Which target mRNA inhibition does the source give for AGCTATTAAAATTACG (sugars k3 d10 k3, PS) here?
A: 22%

Q: AGCTCTATACTTTGAA (sugars k3 d10 k3, PS) was tested. Which target mRNA inhibition did it give?
A: 64%

Q: Which target mRNA inhibition does the source give for AGCTGCAGGCTATTAC (sugars k3 d10 k3, PS) here?
A: 39%

Q: Which target mRNA inhibition does the source give for AGCTGTCAATTAATGC (sugars k3 d10 k3, PS) here?
A: 10%

Q: Which target mRNA inhibition does the source give for AGCTTCATCAAACACT (sugars k3 d10 k3, PS) here?
A: 3%

Q: Which target mRNA inhibition does the source give for AGCTTGGCCAAGTCTG (sugars k3 d10 k3, PS) here?
A: 28%

Q: AGCTTGTTCACCTGTT (sugars k3 d10 k3, PS) was tested. Which target mRNA inhibition did it give?
A: 37%

Q: How did the target mRNA inhibition turn out when AGCTTTACCTTCTAAC (sugars k3 d10 k3, PS) was run?
A: 47%

Q: For AGGAACAAGTCCTACA (sugars k3 d10 k3, PS), which target mRNA inhibition is on record?
A: 36%

Q: AGGATTCTAGACAGAC (sugars k3 d10 k3, PS) was tested. Which target mRNA inhibition did it give?
A: 72% and 71%

Q: Which target mRNA inhibition does the source give for AGGTATGAGCTTCAGA (sugars k3 d10 k3, PS) here?
A: 1%

Q: For AGGTTACCATAAGTAA (sugars k3 d10 k3, PS), which target mRNA inhibition is on record?
A: 10%

Q: For AGGTTCTAGTTTTACT (sugars k3 d10 k3, PS), which target mRNA inhibition is on record?
A: 16%

Q: For AGTAGTTGTATTAATC (sugars k3 d10 k3, PS), which target mRNA inhibition is on record?
A: 64% and 41%

Q: AGTCAAAGCAAAGACG (sugars k3 d10 k3, PS) was tested. Which target mRNA inhibition did it give?
A: 35%

Q: AGTCACTGGATAAGTA (sugars k3 d10 k3, PS) was tested. Which target mRNA inhibition did it give?
A: 41%

Q: With AGTCCAATGCAAAAAC (sugars k3 d10 k3, PS) as the sequence, how does the target mRNA inhibition read?
A: 23%

Q: Which target mRNA inhibition does the source give for AGTGTAAAACATTGCC (sugars k3 d10 k3, PS) here?
A: 7%

Q: With AGTTAATGTCAGCCCA (sugars k3 d10 k3, PS) as the sequence, how does the target mRNA inhibition read?
A: 34%

Q: How did the target mRNA inhibition turn out when AGTTACATGTTCCCAC (sugars k3 d10 k3, PS) was run?
A: 33%

Q: AGTTATATTAGGTTCT (sugars k3 d10 k3, PS) was tested. Which target mRNA inhibition did it give?
A: 22%

Q: With AGTTGGTAATTACTCT (sugars k3 d10 k3, PS) as the sequence, how does the target mRNA inhibition read?
A: 40%

Q: For AGTTTATCTGCAATCA (sugars k3 d10 k3, PS), which target mRNA inhibition is on record?
A: 46% and 59%

Q: How did the target mRNA inhibition turn out when AGTTTGCTCACATGCC (sugars k3 d10 k3, PS) was run?
A: 65% and 53%

Q: For ATAACTGATCTGACTT (sugars k3 d10 k3, PS), which target mRNA inhibition is on record?
A: -5%

Q: For ATAAGCACTTATCCCT (sugars k3 d10 k3, PS), which target mRNA inhibition is on record?
A: 50%

Q: ATAAGGTCAATAGTGT (sugars k3 d10 k3, PS) was tested. Which target mRNA inhibition did it give?
A: 38%

Q: For ATACATCAAGGATGTA (sugars k3 d10 k3, PS), which target mRNA inhibition is on record?
A: 19%

Q: How did the target mRNA inhibition turn out when ATACTGAAAACTCCCC (sugars k3 d10 k3, PS) was run?
A: 14%

Q: For ATACTTCTCCAATACT (sugars k3 d10 k3, PS), which target mRNA inhibition is on record?
A: -15%

Q: Which target mRNA inhibition does the source give for ATATAAGGTCAATAGT (sugars k3 d10 k3, PS) here?
A: 16%

Q: For ATATCTTAGTAACCTA (sugars k3 d10 k3, PS), which target mRNA inhibition is on record?
A: 15%
